Data as given in patent US20240391954A1, “MC4R AGONIST PEPTIDES” (The Regents of the University of Michigan, priority 2021, published 2024).
Positions of bridges follow the written chain, without caps; N, C: chain ends. Non-standard residues stand in square brackets, D forms with d. Residues, ends and D or L forms follow the SMILES beside them. Nle = CCCC[C@H](N)C(=O)O

Tests used:
Type in all cases: cell-based
human MC4R = target: T1, human MC4R (Homo sapiens, UniProt P32245); test: split-luciferase cAMP sensor assay, agonist mode (measurement window 1), hMC4R; conditions: % maximal activation, agonist mode; read-out: MC4R cAMP % max activation
T1 construct: host or cells: HEK-293 cells stably expressing the GScAMP22F split-luciferase cAMP sensor and hMC4R, G418 selection
Procedure, shortened: (§1)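 EC50 values come from a four-parameter variable-slope fit of luminescence in measurement window 1, capturing direct peptide effects on receptor-expressing cells with a cAMP22f luciferase sensor. Cells were preloaded with 4% D-luciferin, serum-free medium; 20 μM forskolin normalized for cell number and transducer efficiency.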

human MC1R = target: T2, human MC1R (Homo sapiens, UniProt Q01726); test: split-luciferase cAMP sensor assay, agonist mode, hMC1R; conditions: MC4R versus MC1R
T2 construct: expressed in transfected cells; host or cells: HEK-293 cells stably expressing hMC1R and the GScAMP22F cAMP sensor
Procedure, shortened: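 HEK-293 cells stably expressing hMC1R and the GScAMP22F split-luciferase cAMP sensor, preloaded 120 min at 37° C with D-luciferin in serum-free medium. Peptide responses were taken as peak luminescence over 2-13 min minus 2-min baseline, normalized to the α-MSH ECmax. EC50 was obtained from a four-parameter variable-slope fit.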

human MC3R = target: T3, human MC3R (Homo sapiens, UniProt P41968); test: split-luciferase cAMP sensor assay, agonist mode (measurement window 1), hMC3R
T3 construct: expressed in transfected cells; host or cells: HEK-293 cells stably expressing the GScAMP22F split-luciferase cAMP sensor (parent reporter line from Promega); MC3R clone generated in-house, G418 selection
Procedure, shortened: as §1

T3 sequence (P41968 whole entry): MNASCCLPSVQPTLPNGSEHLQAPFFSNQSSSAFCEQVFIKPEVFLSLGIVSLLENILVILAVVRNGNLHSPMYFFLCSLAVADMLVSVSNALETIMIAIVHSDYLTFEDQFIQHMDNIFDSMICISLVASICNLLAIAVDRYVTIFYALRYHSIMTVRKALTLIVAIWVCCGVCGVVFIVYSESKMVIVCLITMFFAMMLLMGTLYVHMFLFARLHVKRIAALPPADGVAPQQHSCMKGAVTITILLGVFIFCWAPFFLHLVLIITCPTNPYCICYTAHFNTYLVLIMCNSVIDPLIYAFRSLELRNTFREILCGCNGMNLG
T1 sequence (P32245 whole entry): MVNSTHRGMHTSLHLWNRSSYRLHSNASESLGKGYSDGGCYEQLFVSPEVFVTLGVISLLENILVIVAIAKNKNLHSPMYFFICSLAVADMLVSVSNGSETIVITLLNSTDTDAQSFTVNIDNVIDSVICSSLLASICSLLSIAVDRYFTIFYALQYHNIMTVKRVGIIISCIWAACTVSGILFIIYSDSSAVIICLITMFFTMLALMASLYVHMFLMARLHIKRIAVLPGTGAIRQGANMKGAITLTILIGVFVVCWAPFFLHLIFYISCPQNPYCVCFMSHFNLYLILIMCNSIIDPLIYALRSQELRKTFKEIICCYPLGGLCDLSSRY
T2 sequence (Q01726 whole entry): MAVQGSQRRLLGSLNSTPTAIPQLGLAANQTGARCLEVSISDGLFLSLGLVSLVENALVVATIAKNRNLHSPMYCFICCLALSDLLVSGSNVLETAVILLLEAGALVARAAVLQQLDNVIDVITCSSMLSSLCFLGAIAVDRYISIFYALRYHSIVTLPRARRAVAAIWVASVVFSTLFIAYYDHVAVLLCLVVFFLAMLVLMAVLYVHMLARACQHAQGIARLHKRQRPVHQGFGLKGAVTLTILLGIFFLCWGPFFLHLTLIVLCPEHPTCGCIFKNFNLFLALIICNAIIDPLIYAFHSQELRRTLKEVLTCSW

Compound: CCCC[C@H](NC(=O)[C@H](CCCNC(=N)N)NC(C)=O)C(=O)N[C@H]1CSSC[C@@H](C(N)=O)NC(=O)[C@H](Cc2c[nH]c3ccccc23)NC(=O)[C@H](CCCNC(=N)N)NC(=O)[C@@H](Cc2ccccc2)NC(=O)[C@H](Cc2c[nH]cn2)NC1=O [CTX-1227, Arg-Nle-cyclo(Cys-His-D-Phe-Arg-Trp-Cys)] (Ac-R[Nle]CH[dF]RWC-NH2; disulfide 3-8 (inferred))
- Emax (human MC4R): 103%
- MC4R selectivity vs MC1R (human MC1R): 0.92
- Emax (human MC3R; % maximal activation, agonist mode, read-out: MC3R cAMP % max activation): 96%
- EC50 (human MC3R; HEK-293 cells stably expressing hMC3R, agonist mode, read-out: MC3R cAMP EC50): 2.8 nM
- MC4R selectivity vs MC3R (human MC3R; MC4R versus MC3R): 11
